This is an account of results in ChEMBL document CHEMBL6153088, “Discovery of 1,4-Disubstituted Cyclohexene Analogues as Selective GPR119 Agonists for the Treatment of Type 2 Diabetes” (J Med Chem, 2025).

For experiment [1], the target named is T1, Glucose-dependent insulinotropic receptor (Homo sapiens, UniProt Q8TDV5).
T1 sequence (Q8TDV5 whole entry): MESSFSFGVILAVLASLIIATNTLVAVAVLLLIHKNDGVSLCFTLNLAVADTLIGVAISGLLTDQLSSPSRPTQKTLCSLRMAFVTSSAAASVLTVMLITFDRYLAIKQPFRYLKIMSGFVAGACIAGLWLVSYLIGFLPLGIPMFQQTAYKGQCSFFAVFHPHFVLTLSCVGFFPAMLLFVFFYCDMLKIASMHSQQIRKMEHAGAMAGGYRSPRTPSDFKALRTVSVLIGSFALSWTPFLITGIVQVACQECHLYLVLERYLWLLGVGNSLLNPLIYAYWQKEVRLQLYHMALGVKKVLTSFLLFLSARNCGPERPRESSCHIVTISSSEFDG
The experiment is described as follows: Agonist activity at human GPR119. The format is functional.

Experiment [2] concerns Mus musculus. The experiment is described as follows: Anti-diabetic activity in overnight fasted male C57BL/6J mouse assessed as reduction in blood glucose level by measuring reduction in AUC […] at 20 mg/kg pre-administered with compound for 30 min followed by glucose bolus addition and measured upto 120 min by oral glucose tolerance test relative to control. Format: functional. Also on record: scale not given: the % may be the effect or the level left. The settings on record: time <= 150 min, 2.5 h.

The target of experiment [3] is T1, Glucose-dependent insulinotropic receptor. The experiment is described as follows: Agonist activity at human GPR119 expressed in CHO cells assessed as cAMP level measured after 90 mins by HTRF based assay. The format is functional, cell-based. On the technique in general: cAMP levels reflect the balance of adenylyl cyclase and phosphodiesterase activity.
For experiment [4], the system named is Mus musculus. The experiment is described as follows: Anti-diabetic activity in overnight fasted male C57BL/6J mouse assessed as reduction in blood glucose level by measuring reduction in AUC […] at 30 mg/kg pre-administered with compound for 30 min followed by glucose bolus addition and measured upto 120 min by oral glucose tolerance test relative to control. Format: functional. Also on record: scale not given: the % may be the effect or the level left. The settings on record: time <= 150 min, 2.5 h.

The test system of experiment [5] is Mus musculus. As to the kind of experiment: Anti-diabetic activity in overnight fasted male C57BL/6J mouse assessed as reduction in blood glucose level administered twice a day preincubated with compound for 30 min followed by glucose bolus addition and measured upto 120 min by oral glucose tolerance test. The settings on record: dose 3-30 mg/kg, time <= 150.0 min. The format is functional, organism-based.

Experiment [6] concerns the target T1, Glucose-dependent insulinotropic receptor. As to the kind of experiment: Agonist activity at human GPR119 expressed in CHO-K1 cells co-transfected with pcDNA3.1 assessed as increase in cAMP level. The format is functional, cell-based.
Experiment [7] deals with Mus musculus. The experiment is described as follows: Anti-diabetic activity in overnight fasted male C57BL/6J mouse assessed as reduction in blood glucose level by measuring reduction in AUC […] at 10 mg/kg once a day pre-administered with compound for 30 min followed by glucose bolus addition and measured upto 120 min by oral glucose tolerance test relative to control. The format is functional. Also on record: scale not given: the % may be the effect or the level left. The settings on record: time <= 150 min, 2.5 h.

Experiment [8] deals with Mus musculus. The experiment is described as follows: Anti-diabetic activity in male FATZO mouse assessed as reduction in blood glucose level by measuring reduction in AUC […] at 30 mg/kg pre-administered with compound for 30 min followed by glucose bolus addition and measured upto 120 min by oral glucose tolerance test relative to control. The format is functional. Also on record: scale not given: the % may be the effect or the level left. The settings on record: time <= 150 min, 2.5 h.

Experiment [9] concerns Mus musculus. As to the kind of experiment: Anti-diabetic activity in male FATZO mouse assessed as reduction in blood glucose level by measuring AUC […] at 300 mg/kg once a day pre-administered with compound for 30 min followed by glucose bolus addition and measured upto 120 min by oral glucose tolerance test relative to control. Format: functional. Also on record: scale not given: the % may be the effect or the level left. The settings on record: time <= 150 min, 2.5 h.

The compound `CCOC(=O)C1CCC(c2ccc(OCC3CCN(C(=O)OC(C)(C)C)CC3)cc2)CC1` (stereo unspecified) returned an EC50 in experiment [1] of 370 nM.

`CCc1cnc(N2CCC(COc3ccc(C4=CCC(C(=O)N5CCC[C@H]5CO)CC4)cc3)CC2)nc1` (stereo partly specified): in experiment [2], the Activity amounted to 9.8%. Also, in experiment [3], the EC50 was 31 nM.

For `CC(C)c1noc(N2CCC(COc3ccc(C4=CCC(C(=O)N5CCC5)CC4)cc3)CC2)n1` (stereo unspecified), the Activity in experiment [2] was 4.2%. In addition, the concentration for a half-maximal effect (EC50) in experiment [3] worked out at 41 nM.

For `CC(C)(C)OC(=O)N1CCC(COc2ccc(C3=CCC(C(=O)N4CCOCC4)CC3)cc2)CC1` (stereo unspecified), in experiment [2], the Activity was 10.2%. Also, the 50% effective concentration (EC50) in experiment [3] worked out at 13 nM.

Take `CC(C)(C)OC(=O)N1CCC(COc2ccc(C3=CCC(C(=O)NCCO)CC3)cc2)CC1` (stereo unspecified): the Activity in [2] turned out to be 6.7%. Besides, the 50% effective concentration (EC50) in experiment [3] stood at 140 nM.

As to `CCc1cnc(N2CCC(COc3ccc(C4=CCC(C(=O)N5CCC[C@@H]5CO)CC4)cc3)CC2)nc1` (stereo partly specified), the Activity in [4] was 25.8%; in experiment [2], 16.6%; in [5], “Dose-dependent-effect”. For the same compound, the EC50 in experiment [3] is 6.8 nM.

On to `CC(C)c1noc(N2CCC(COc3ccc(C4=CCC(C(=O)N5CCOCC5)CC4)cc3)CC2)n1` (stereo unspecified), for which the Activity in experiment [2] is reported as 4.1%. Moreover, the 50% effective concentration (EC50) in experiment [3] came to 18 nM.

For the compound `CCc1cnc(N2CCC(COc3ccc(C4=CCC(C(=O)N5CC[C@@H](CO)C5)CC4)cc3)CC2)nc1` (stereo partly specified), the Activity in experiment [2] was determined as 7.6%. Further, in [3], the 50% effective concentration (EC50) was 43 nM.

`CC(C)c1noc(N2CCC(COc3ccc(C4=CCC(C(=O)N5CCCC5)CC4)cc3)CC2)n1` (stereo unspecified): in [2], the Activity is reported as 5.9%. Also, the half-maximal effective concentration (EC50) in [3] amounted to 55 nM.

Consider `CCc1cnc(N2CCC(COc3ccc(C4=CCC(C(=O)N5CC(O)C5)CC4)cc3)CC2)nc1` (stereo unspecified), for which the Activity in experiment [2] was 12.3%. The EC50 in experiment [3] was 70 nM.

For the compound `CCc1cnc(N2CCC(COc3ccc(C4=CCC(C(=O)N5CC[C@H](CO)C5)CC4)cc3)CC2)nc1` (stereo partly specified), the Activity in [2] was found to be 13%. Moreover, the 50% effective concentration (EC50) in [3] was 36 nM.

With `CCc1cnc(N2CCC(CCCOc3cc(F)c(-c4noc(C(C)C)n4)c(F)c3)CC2)nc1`, a half-maximal response in [1] (EC50) required 14 nM.

As to `CCc1cnc(N2CCC(COc3ccc(C4=CCC(C(=O)N5CCC(=O)C5)CC4)cc3)CC2)nc1` (stereo unspecified), the Activity in [2] was 12.7%. Moreover, the 50% effective concentration (EC50) in experiment [3] was 12 nM.

`CC[C@@H](Oc1ccc(C(=O)C2CC2)cc1)c1nc(-c2ccc(C(=O)N[C@H](C)CO)c(F)c2)no1` [FIRUGLIPEL]: the EC50 in experiment [6] turned out to be 51 nM.

In the case of `CC(C)(C)OC(=O)N1CCC(COc2ccc(C3=CCC(C(=O)NCC(F)F)CC3)cc2)CC1` (stereo unspecified), the Activity in experiment [2] was 10.6%. The EC50 in [3] was 34 nM.

`CN(CCO)C(=O)C1CC=C(c2ccc(OCC3CCN(C(=O)OC(C)(C)C)CC3)cc2)CC1` (stereo unspecified): the Activity in experiment [2] came out at 6.8%. For the same compound, in [3], the EC50 amounted to 14 nM.

As for `N[C@@H](CC(=O)N1CCn2c(nnc2C(F)(F)F)C1)Cc1cc(F)c(F)cc1F` [SITAGLIPTIN], the figures for the Activity in [7], in experiment [4] and in experiment [8] were 20.5%, 22% and 17.5%, respectively.

`CCc1cnc(N2CCC(COc3ccc(C4=CCC(C(=O)N5CCCC5)CC4)cc3)CC2)nc1` (stereo unspecified): in [2], the Activity is 15.9%. Also, the half-maximal effective concentration (EC50) in [3] was 27 nM.

For the compound `CN(C)C(=N)NC(=N)N` [METFORMIN], the Activity in [9] was determined as 25%.

`CCc1cnc(N2CCC(COc3ccc(C4=CCC(C(=O)N5CCOCC5)CC4)cc3)CC2)nc1` (stereo unspecified): in experiment [2], the Activity was found to be 15.7%. In experiment [3], the EC50 stood at 13 nM.

Take `CC(C)(C)OC(=O)N1CCC(COc2ccc(C3=CCC(C(=O)NC4CC4)CC3)cc2)CC1` (stereo unspecified): the EC50 in experiment [3] turned out to be 40 nM.

Turning to `CCc1cnc(N2CCC(COc3ccc(C4=CCC(C(=O)N5CCC5)CC4)cc3)CC2)nc1` (stereo unspecified), the Activity in experiment [2] is 14.6%. For the same compound, in [3], the EC50 worked out at 38 nM.

With `CCc1cnc(N2CCC(COc3ccc(C4=CCC(C(=O)N5CCC(F)(F)C5)CC4)cc3)CC2)nc1` (stereo unspecified), in [2], the Activity is listed as 12.6%. In addition, the EC50 in experiment [3] came to 10 nM.

Regarding `CCc1cnc(N2CCC(COc3ccc(C4=CC[C@@H](C(=O)N5CCC[C@@H]5CO)CC4)cc3)CC2)nc1`, the EC50 in experiment [3] was determined as 32 nM.

Turning to `CCOC(=O)C1CC=C(c2ccc(OCC3CCN(C(=O)OC(C)(C)C)CC3)cc2)CC1` (stereo unspecified), the EC50 in experiment [3] came to 53 nM.

For the compound `CCc1cnc(N2CCC(COc3ccc(C4=CCC(C(=O)N5CC[C@@H](O)C5)CC4)cc3)CC2)nc1` (stereo partly specified), the Activity in experiment [2] was found to be 13.5%. Also, in experiment [3], the EC50 worked out at 13 nM.

With `CCOC(=O)c1ccc(-c2ccc(OCC3CCN(C(=O)OC(C)(C)C)CC3)cc2)cc1`, the midpoint of the response in experiment [1], the EC50, lay at 120 nM.

For `CCc1cnc(N2CCC(COc3ccc(C4=CCC(C(=O)N5CC[C@H](O)C5)CC4)cc3)CC2)nc1` (stereo partly specified), in experiment [2], the Activity worked out at 7.2%. In addition, in experiment [3], the EC50 turned out to be 26 nM.

Usually EC50 stands for the midpoint of the concentration-response curve.
